Data from patent US10022527B2, “Immersion device” (BSN medical GmbH, priority 2013, dated 2018).

Experiments:
[1] = cited from earlier work
[2] = Generation of oxidation products (NO2) in the NO-containing solution; type: physicochemical; details: same solution
Description: (§1) The NO-generating unit contained tap water, buffer salts (8 g/l NaCl+0.2 g/l KCl+1.424 g/l Na2HPO4+0.2 g/l KH2PO4, pH=7.0), 1.45 mM NaNO2 and 10 mM Na ascorbate.
(§2) UV radiation of this solution containing nitrite yielded a solution that contained approximately 150 μM NO. The stability of the generated NO and the occurrence of oxidation products were analyzed on the basis of this solution. Moreover, the effect in terms of perfusion and erythema formation was tested within the scope of its use as a foot bath.
This solution first underwent a stability test, that is to say, it was ascertained how the content of NO changes over a time span of 20 minutes. […] During the entire procedure, the helium-gas mixtures escaping from the flask were conveyed directly into an NO analysis unit (Chemiluminescence Detector—CLD 822 Sr made by Eco Physics of Duernten, Switzerland) which detected and recorded the NO amounts in ppm (parts per million) that were contained in the gas mixture (in this context, also see Opländer et al. 2010—Nitric Oxide—Bio. Ch. 23: 275-283).
Using the solution described above, parallel to the above-mentioned NO detection, the amount of nitrogen dioxide radicals, as the most important oxidation product of NO, was detected during the same measurement. […]

[3] = cited from earlier work; remark: listed apart in the source
[4] = Stability test of the NO content of the UV-generated NO-containing buffer solution (chemiluminescence detection); type: physicochemical; details: approximately 150 μM NO in buffered tap water pH 7.0 with 1.45 mM NaNO2 and 10 mM Na ascorbate; over a time span of 20 minutes; not statistically significant
Description: as §1, §2
This solution first underwent a stability test, that is to say, it was ascertained how the content of NO changes over a time span of 20 minutes. Every two minutes an aliquot of 10 ml of the bathing solution was pipetted into a flask (volume capacity of 175 ml) through which helium gas was flowing (100 ml/min) and which had already been filled with 40 ml of a PBS solution (pH of 7.4). During the entire procedure, the helium-gas mixtures escaping from the flask were conveyed directly into an NO analysis unit (Chemiluminescence Detector—CLD 822 Sr made by Eco Physics of Duernten, Switzerland) which detected and recorded the NO amounts in ppm (parts per million) that were contained in the gas mixture (in this context, also see Opländer et al. 2010—Nitric Oxide—Bio. Ch. 23: 275-283). […]

## [N]=O [NO, nitric oxide]
[1]
  maximum solubility of NO in aqueous solutions: approximately 2 mM
[2]; occurred only after 10 minutes
  concentration of NO2 (oxidation product of NO): ~1.5 ppm
[2]; up to the maximum time value of 20 minutes
  measured NO2 values compared with the initial values: not significantly higher than the initial values
[3]; at 37° C.
  diffusion coefficient of NO relative to that of oxygen or carbon monoxide: approximately 1.4
[3]; calculated on the basis of the diffusion coefficient
  diffusion path that can be achieved in the tissues: 500 μm
[4]
  drop of NO content: about 10%
